Results from patent EP4653001A1, “TREATMENT, DIAGNOSIS AND/OR PROGNOSIS OF MITOCHONDRIAL DISEASES” (Universidad Autónoma de Madrid, priority 2024, dated 2025).

Assays:
Type in all cases: cell-based
143B cells [1] = test: PPP activity measurement in 143B cells; conditions: 24 h
Experimental: The determination of pentose-phosphate pathway (PPP) activity was conducted by assessing the difference between 14CO2 production from 1-14C-glucose, which decarboxylates through the 6-phosphogluconate dehydrogenase-catalyzed reaction, and that of 6-^14C-glucose, which decarboxylates through the tricarboxylic acid cycle.
Increased lactate secretion is considered a good indicator of enhanced glycolytic rates, which is a common feature of ETC-inhibited cells as they switch from OXPHOS to glycolysis to maintain ATP levels. […] We culture 143B cells in the presence of Piericidin for 24 h and PPP activity and lactate release, as a proxy of glycolysis, were measured. As expected, lactate detection in the media was higher in CI-inhibited cells. […] Next, we wonder if in this context, glucose can be overused by glycolysis and therefore diverted away from the PPP. Diseases associated with impaired mitochondrial function negatively impact high energy demanding tissues such as the brain. As such, neurons that are highly sensitive to ETC inhibition also rely strongly on glucose metabolism. Thus, we used mouse cortical neurons to determine the rates of glycolysis and PPP as glucose levels become limiting. Control and Piericidin treated neurons where cultured in media containing supraphysiological (25 mM), physiological (5 mM) or subphysiological concentrations of glucose (2,5 mM). […]

143B cells [2] = test: Metabolomics of intracellular metabolites in 143B cells; conditions: 48 h
Experimental: (§1) 1-5.0×10^6 cells were harvested on dry ice with 1 mL pre-chilled 80% HPLC-grade methanol (Fluka Analytical). The cell mixture was incubated for 15 min on dry ice prior to centrifugation at 18,000 × g for 10 min at 4°C. The supernatant was retained, and the remaining cell pellet was resuspended in 800 µL chilled 80% methanol and centrifuged. Supernatant was combined with the previous retention and was lyophilized using a SpeedVac (Thermo Fisher). Lyophilized samples were resuspended in 20 µL ultrapure water and subjected to metabolomics profiling using the AB/SCIEX 5500 QTRAP triple quadrupole instrument. Data analysis was performed using the GiTools software. 13C-labeled glutamine and glucose was acquired in SIGMA (605166 and 389374).
Next, we conducted time-course experiments to gain further knowledge on the metabolic determinants underlying the observed synthetic lethality between PPP and OXPHOS. 143B cells were treated either with Piericidin or G6PDi (selective inhibitor of G6PD) alone or the combination of both and cell proliferation was quantified over the course of 96 h. […] Conversely, dual inhibition produced a marked reduction in cell survival beyond 48 h of treatment that was even more accentuated at 96 h (Figure 2A). […]

143B cells [3] = test: Stable isotope tracing with uniformly labeled 13C-glutamine; conditions: [U-13C]glutamine
Experimental: as §1
Encouraged by the beneficial effects of ME1 and because ME1-dependent NADPH production is linked to intracellular malate levels, we sought to investigate the metabolic pathways and nutrients that maintain malate production upon disruption of the ETC. It is firmly believed that in cells and tissues with defective ETC function, elevated NADH/NAD+ ratio inhibits the Pyruvate dehydrogenase complex (PDC), suppressing pyruvate entry into the mitochondria and forcing its channelling towards the Lactate Dehydrogenase (LDH) in the cytosol. […] To investigate the metabolic routes that ETC-inhibited cells used to generate glutamine-derived malate, we performed an MS-based stable isotope tracing study. DMSO and Piericidin treated 143B cells were cultured in glucose-DMEM supplemented with 2 mM of uniformly labeled [^13C]glutamine, and the incorporation of ^13C into the TCA cycle and related metabolic intermediates was quantified. Oxidative metabolism of [U-^13C]glutamine would generate M+4 isotopologues of oxaloacetate (OAA) and malate, while reductive carboxylation due to ETC inhibition (TCA cycle running in a counterclockwise direction) would produce M+3 forms of OAA and malate. DMSO-treated 143B cells used glutamine as the major anaplerotic precursor, resulting in a large amount of malate M+4. As expected, the oxidation of glutamine via the TCA cycle in CI-inhibited cells was severely diminished with a 5-fold decreased in M+4 labeled malate. Nevertheless, these cells produced citrate M+5 through reductive carboxylation of glutamine-derived a-ketoglutarate. This reaction involves addition of an unlabeled carbon by IDH2 acting in reverse relative to the canonical oxidative TCA cycle. Malate M+3 also rose more than a ~2-fold in CI-inhibited cells and was likely formed after cleavage of citrate M+5 by ATP-citrate lyase (ACLY) since this induction was blunted in ACLY KO cells. Thus, cells with defective ETC use glutamine-dependent reductive carboxylation rather than oxidative metabolism as the major pathway of malate production. […]

[4] = CI-inhibited vs DMSO 143B cells

Question: CC=C(C)C(O)C(C)C=C(C)C=CCC(C)=CCc1nc(OC)c(OC)c(O)c1C (stereo not shown) [Piericidin, Piericidin A] was tested. Which PPP activity (143B cells [1]) did it give?
Answer: significant increase

Question: What about the NADH (143B cells [2]) of the same compound?
Answer: accumulation

Question: What about the “intracellular levels of NADPH” value (143B cells [2]) of the same compound?
Answer: did not exert significant changes

Question: And the “decrease in M+4 labeled malate” value (143B cells [3]; [4])?
Answer: 5 fold

Question: And the “rise of Malate M+3” value (143B cells [3]; [4])?
Answer: > 2 fold

Question: What about the “labeling of malate M+3” value (143B cells [3]; control and PC KO cells, 24 h) of the same compound?
Answer: increasing

Question: What about the “malate M+4” value (143B cells [3]; control and PC KO cells, 24 h) of the same compound?
Answer: reduction
